Consider 64 compounds from ChEMBL document CHEMBL5528073, “Design, Synthesis, and Biological Evaluation of Pierardine Derivatives as Novel Brain-Penetrant and In Vivo Potent NMDAR-GluN2B Antagonists for Ischemic Stroke Treatment” (J Med Chem, 2024).

In general, IC50 refers to the concentration that gives 50% inhibition. A word on the Ki: it is a dissociation constant, usually derived from enzyme kinetics or from competition with a known ligand.

Chain of Glutamate NMDA receptor; GRIN1/GRIN2B (Q13224 whole entry, other chains not shown): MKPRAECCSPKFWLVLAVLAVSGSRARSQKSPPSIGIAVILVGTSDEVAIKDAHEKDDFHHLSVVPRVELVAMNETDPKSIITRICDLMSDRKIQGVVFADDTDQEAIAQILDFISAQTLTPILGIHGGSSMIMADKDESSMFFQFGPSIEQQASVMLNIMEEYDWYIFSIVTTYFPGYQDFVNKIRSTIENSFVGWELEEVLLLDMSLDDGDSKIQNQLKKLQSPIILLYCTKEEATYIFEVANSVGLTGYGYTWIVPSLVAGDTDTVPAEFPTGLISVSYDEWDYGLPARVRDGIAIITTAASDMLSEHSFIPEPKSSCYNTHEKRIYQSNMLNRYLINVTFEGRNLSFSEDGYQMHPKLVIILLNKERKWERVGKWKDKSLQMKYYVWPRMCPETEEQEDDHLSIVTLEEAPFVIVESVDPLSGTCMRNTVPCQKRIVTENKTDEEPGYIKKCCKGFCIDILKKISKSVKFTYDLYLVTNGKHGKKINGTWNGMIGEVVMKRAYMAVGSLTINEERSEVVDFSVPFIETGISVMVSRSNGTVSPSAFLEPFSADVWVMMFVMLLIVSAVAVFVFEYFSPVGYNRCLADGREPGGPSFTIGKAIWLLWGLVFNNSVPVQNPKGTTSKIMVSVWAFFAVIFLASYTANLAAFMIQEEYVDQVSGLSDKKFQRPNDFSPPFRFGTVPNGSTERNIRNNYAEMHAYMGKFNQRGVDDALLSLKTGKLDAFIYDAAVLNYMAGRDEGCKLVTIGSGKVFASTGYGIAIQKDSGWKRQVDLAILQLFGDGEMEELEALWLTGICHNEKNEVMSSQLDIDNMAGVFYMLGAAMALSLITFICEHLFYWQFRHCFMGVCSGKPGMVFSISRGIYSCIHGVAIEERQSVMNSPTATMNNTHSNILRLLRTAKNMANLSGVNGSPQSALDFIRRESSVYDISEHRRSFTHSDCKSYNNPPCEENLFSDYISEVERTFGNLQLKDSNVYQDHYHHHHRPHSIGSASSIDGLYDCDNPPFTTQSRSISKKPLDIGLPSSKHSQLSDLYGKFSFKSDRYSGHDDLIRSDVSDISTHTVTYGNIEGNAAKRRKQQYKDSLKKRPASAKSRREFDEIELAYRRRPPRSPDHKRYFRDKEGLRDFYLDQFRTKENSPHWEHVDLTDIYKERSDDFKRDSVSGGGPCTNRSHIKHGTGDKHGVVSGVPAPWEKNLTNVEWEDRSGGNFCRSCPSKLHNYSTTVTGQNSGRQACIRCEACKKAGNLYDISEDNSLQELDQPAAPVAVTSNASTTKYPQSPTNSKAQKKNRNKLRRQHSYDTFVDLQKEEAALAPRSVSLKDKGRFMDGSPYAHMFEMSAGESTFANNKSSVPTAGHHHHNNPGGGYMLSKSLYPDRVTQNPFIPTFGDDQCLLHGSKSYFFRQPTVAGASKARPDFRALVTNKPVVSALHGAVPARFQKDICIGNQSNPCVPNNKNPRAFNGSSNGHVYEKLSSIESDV

The first data set deals with Voltage-gated inwardly rectifying potassium channel KCNH2 (Homo sapiens, UniProt Q12809). Put plainly: Inhibition of hERG expressed in HEK293 cells by whole-cell manual patch-clamp assay. Format: toxicity, cell-based.
Conditions: not given; call rule not given here
A general note: Block of hERG is tested as a sign of cardiac risk.
Consider `O=C1OC(CCCN2CCN(C(=O)c3cc4cccc(Cl)c4[nH]3)CC2)c2cc(O)ccc21` (stereo unspecified), for which the “inhibition (INH)” value was “Active”.

The target of the next data set is Glutamate receptor ionotropic, NMDA 2B (Rattus norvegicus) (UniProt Q00960). Put plainly: Antagonist activity at rat GluN2B NMDA receptor at 50 nM incubated for 120 mins by competitive binding assay relative to control. More on the design: scale not given: the % may be the effect or the level left.
Chain of Glutamate receptor ionotropic, NMDA 2B (Rattus norvegicus) (Q00960 27-1482 limits assumed): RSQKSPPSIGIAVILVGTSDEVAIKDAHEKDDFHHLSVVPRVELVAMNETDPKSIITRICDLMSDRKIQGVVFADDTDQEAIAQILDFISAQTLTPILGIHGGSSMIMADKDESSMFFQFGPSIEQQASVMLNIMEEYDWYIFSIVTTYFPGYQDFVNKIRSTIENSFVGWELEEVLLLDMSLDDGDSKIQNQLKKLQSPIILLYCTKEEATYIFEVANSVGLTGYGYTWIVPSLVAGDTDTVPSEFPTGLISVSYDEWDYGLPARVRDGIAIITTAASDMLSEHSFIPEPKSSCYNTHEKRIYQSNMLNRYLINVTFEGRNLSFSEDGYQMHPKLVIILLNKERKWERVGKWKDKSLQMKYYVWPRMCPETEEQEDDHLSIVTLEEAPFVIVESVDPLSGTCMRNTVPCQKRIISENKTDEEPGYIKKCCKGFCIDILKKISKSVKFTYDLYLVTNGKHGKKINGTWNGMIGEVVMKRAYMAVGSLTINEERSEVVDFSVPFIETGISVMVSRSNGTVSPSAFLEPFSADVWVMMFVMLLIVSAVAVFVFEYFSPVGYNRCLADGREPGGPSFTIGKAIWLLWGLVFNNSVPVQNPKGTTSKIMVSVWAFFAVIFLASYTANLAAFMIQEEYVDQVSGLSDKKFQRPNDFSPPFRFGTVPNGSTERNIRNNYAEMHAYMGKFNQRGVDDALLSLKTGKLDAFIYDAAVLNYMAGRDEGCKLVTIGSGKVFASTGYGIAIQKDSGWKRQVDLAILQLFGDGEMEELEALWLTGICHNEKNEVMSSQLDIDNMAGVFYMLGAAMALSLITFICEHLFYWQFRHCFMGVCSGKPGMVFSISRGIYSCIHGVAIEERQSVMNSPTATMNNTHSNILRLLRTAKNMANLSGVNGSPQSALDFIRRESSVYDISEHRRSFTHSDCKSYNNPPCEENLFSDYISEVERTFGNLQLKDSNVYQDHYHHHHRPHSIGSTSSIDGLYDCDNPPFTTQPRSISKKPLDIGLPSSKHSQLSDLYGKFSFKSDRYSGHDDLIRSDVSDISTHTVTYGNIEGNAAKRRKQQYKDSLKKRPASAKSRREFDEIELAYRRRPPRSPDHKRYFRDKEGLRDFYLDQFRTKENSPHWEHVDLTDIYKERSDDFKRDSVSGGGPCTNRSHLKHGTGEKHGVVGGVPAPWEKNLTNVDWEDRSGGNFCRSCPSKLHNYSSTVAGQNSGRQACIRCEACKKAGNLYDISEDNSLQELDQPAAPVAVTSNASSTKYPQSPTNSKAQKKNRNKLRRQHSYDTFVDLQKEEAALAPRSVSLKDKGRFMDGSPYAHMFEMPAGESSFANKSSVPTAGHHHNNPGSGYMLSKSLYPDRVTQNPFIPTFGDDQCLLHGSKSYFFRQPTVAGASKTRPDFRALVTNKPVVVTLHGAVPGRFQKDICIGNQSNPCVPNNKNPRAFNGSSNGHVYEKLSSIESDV
Conditions: not given
`O=C1OC(CCCN2CCN(c3ncccn3)CC2)c2ccccc21` (stereo unspecified): the Activity was 30.9%. Same read-out and setting: the figure for `O=C1OC(CCCN2Cc3ccccc3C2)c2ccccc21` (stereo unspecified) is 26.7%; for `O=C1OC(CCCN2CCc3ccccc32)c2ccccc21` (stereo unspecified) it is 24.5%. Same read-out and setting: to `O=C1OC(CCCN2CCN(c3nsc4ccccc34)CC2)c2ccccc21` (stereo unspecified) belongs 15.7%. Same read-out and setting: the figure for `O=C1OC(CCCN2CCN(c3csc4ccccc34)CC2)c2ccccc21` (stereo unspecified) is 36.6%.

As to `O=C1OC(CCCN2CCc3ccccc3C2)c2ccccc21` (stereo unspecified), the Activity worked out at 22.2%. Still for that read-out and setting: to `O=C1OC(CCCN2CCc3ccccc3C2c2ccccc2)c2ccccc21` (stereo unspecified) belongs 36.4%. On the same count and under the same terms, the figure for `Cc1ccc2c(c1)CN(CCCC1OC(=O)c3ccccc31)CC2` (stereo unspecified) is 32.4%.

Still in this data set, the particulars now being: filed as antagonist.
`O=C1OC(CCCN2C[C@H]3C[C@@]3(c3ccc(Cl)c(Cl)c3)C2)c2ccccc21` (stereo partly specified): the Activity came out at 76%. The same measure, in the same setting: to `O=C1OC(CCCN2CCc3ccccc32)c2ccccc21` (stereo unspecified) belongs 47.1%. Compound `O=C1OC(CCCN2CCN(c3ccccc3)CC2)c2ccccc21` (stereo unspecified) gave an Activity of 75.4%. Same read-out and setting: the figure for `NC(=O)c1coc2ccc(N3CCN(CCCC4OC(=O)c5ccccc54)CC3)cc12` (stereo unspecified) is 47.1%; for `O=C1OC(CCCN2CCN(c3ccccn3)CC2)c2ccccc21` (stereo unspecified) it is 42.2%.

Test system in a further data set: not listed separately
As to the kind of experiment: cells. To be noted: Rattus norvegicus, Hippocampal neurone, 6.5 h, read-out: Activity.
As to `CC(C(O)c1ccc(O)cc1)N1CCC(Cc2ccccc2)CC1` (stereo unspecified) [IFENPRODIL], the viability at 1 µM was 77%.

Test system in the next data set: not listed separately
As to the kind of experiment: Neuroprotective activity against NMDA-induced cell injury in rat Hippocampal neuron cells assessed as cell viability at 0.1 uM preincubated with compound for 6 hrs followed by NMDA-addition and measured after 0.5 hrs by MTT assay relative to control. To be noted: Hippocampal neurone, 6.5 h, read-out: Activity. A general note: Tetrazolium dyes change colour on reduction, which living cells bring about.
Regarding `CC(C(O)c1ccc(O)cc1)N1CCC(Cc2ccccc2)CC1` (stereo unspecified) [IFENPRODIL], the viability at 0.1 µM was determined as 65.9%.

Test system in the next data set: not listed separately
Put plainly: Cytotoxicity against mouse L929 cells assessed as reduction in cell viability incubated for 48 hrs by CCK-8 assay.
Conditions: not given
With `CN(C)CCCC1OC(=O)c2ccccc21` (stereo unspecified), the IC50 at 48 h is above 300000 nM.

The target in another data set is Glutamate receptor ionotropic, NMDA 2B (Rattus norvegicus, UniProt Q00960).
Chain of Glutamate receptor ionotropic, NMDA 2B (Q00960 whole entry): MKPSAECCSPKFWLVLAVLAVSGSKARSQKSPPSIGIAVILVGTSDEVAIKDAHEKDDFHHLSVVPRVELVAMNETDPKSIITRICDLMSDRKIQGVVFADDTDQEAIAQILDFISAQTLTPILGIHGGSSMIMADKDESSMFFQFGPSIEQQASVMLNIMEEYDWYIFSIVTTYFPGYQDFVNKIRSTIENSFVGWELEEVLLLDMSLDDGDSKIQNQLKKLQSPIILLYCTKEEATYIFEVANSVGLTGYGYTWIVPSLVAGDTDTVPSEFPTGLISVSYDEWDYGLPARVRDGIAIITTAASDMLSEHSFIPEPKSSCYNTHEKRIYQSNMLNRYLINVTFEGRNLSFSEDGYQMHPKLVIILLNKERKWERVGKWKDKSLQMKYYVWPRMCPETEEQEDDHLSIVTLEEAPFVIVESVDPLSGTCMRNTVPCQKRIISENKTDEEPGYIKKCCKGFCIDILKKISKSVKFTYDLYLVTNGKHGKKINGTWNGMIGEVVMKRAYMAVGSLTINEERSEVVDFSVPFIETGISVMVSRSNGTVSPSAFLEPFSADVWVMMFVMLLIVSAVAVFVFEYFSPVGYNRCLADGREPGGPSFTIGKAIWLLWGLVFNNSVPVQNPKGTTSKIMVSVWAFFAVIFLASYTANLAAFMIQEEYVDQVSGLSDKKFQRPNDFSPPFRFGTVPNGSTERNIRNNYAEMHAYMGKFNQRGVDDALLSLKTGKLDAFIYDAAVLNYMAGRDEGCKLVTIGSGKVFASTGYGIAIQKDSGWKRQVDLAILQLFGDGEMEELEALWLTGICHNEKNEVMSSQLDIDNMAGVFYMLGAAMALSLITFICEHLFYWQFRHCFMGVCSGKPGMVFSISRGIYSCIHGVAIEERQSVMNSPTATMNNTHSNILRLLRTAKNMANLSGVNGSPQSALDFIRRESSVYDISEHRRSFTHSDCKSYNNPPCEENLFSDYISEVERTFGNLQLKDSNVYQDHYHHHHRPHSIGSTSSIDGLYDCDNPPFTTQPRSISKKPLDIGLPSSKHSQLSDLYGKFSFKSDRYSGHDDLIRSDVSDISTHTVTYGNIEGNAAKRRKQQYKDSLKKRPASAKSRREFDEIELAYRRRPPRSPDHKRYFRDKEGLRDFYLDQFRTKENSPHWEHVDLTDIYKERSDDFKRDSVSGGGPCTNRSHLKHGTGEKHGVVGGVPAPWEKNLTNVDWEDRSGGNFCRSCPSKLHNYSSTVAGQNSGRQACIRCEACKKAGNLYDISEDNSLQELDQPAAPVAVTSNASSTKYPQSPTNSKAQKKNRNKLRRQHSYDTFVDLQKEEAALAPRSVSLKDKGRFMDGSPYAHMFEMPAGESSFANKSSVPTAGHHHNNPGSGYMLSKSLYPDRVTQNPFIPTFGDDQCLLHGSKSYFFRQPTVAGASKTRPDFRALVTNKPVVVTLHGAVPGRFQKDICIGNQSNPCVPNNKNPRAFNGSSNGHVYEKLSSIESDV
Assay: not given
Conditions: not given
The compound `O=C1OC(CCCN2CCN(C(=O)c3c[nH]cn3)CC2)c2ccccc21` (stereo unspecified) registered a Ki of 13.4 nM. On the same count and under the same terms, to `O=C1OC(CCCN2CCN(c3ccc(Cl)cc3)CC2)c2ccccc21` (stereo unspecified) belongs 25.6 nM; to `O=C1OC(CCCN2CCN(C(=O)c3cc4ccncc4[nH]3)CC2)c2ccccc21` (stereo unspecified), 25.4 nM; to `Cc1cccc2cc(C(=O)N3CCN(CCCC4OC(=O)c5ccccc54)CC3)[nH]c12` (stereo unspecified), 27.9 nM. Compound `O=C1OC(CCCN2CCN(C(=O)c3cc4cnccc4[nH]3)CC2)c2ccccc21` (stereo unspecified) showed a Ki of 32.8 nM.

Consider `COc1ccccc1N1CCN(CCCC2OC(=O)c3ccccc32)CC1` (stereo unspecified), for which the affinity, expressed as Ki, was 8.15 nM. The same measure, in the same setting: the figure for `O=C1OC(CCCN2C[C@H]3C[C@@]3(c3ccc(Cl)c(Cl)c3)C2)c2ccccc21` (stereo partly specified) is 33.6 nM; for `COc1ccc2[nH]c(C(=O)N3CCN(CCCC4OC(=O)c5ccccc54)CC3)cc2c1` (stereo unspecified) it is 26 nM. On the same count and under the same terms, to `CC(C)c1ccc(N2CCN(CCCC3OC(=O)c4ccccc43)CC2)cc1` (stereo unspecified) belongs 2.89 nM; to `O=C1OC(CCCN2CCN(C(=O)c3cc4cccnc4[nH]3)CC2)c2ccccc21` (stereo unspecified), 49.7 nM. Same read-out and setting: the figure for `CS(=O)(=O)Nc1ccc2c(c1)C(=O)OC2CCCN1CCN(C(=O)c2ccc(C(F)(F)F)cc2)CC1` (stereo unspecified) is 15.2 nM; for `CS(=O)(=O)Nc1ccc2c(c1)C(=O)OC2CCCN1CCN(C(=O)c2cc3cccc(Cl)c3[nH]2)CC1` (stereo unspecified) it is 4.23 nM. On to `O=C1OC(CCCN2CCN(c3ccccc3)CC2)c2ccccc21` (stereo unspecified), for which the affinity, expressed as Ki, was 13.9 nM. With `O=C1OC(CCCN2CCN(C(=O)c3cc4cccc(Cl)c4[nH]3)CC2)c2cc(O)ccc21` (stereo unspecified), the Ki amounted to 1.12 nM.

In turn, `O=C1OC(CCCN2CCN(c3ccc(F)cc3)CC2)c2ccccc21` (stereo unspecified) came in with a Ki of 9.39 nM. For the compound `O=C1OC(CCCN2CCN(c3ccccc3C(F)(F)F)CC2)c2ccccc21` (stereo unspecified), the Ki turned out to be 25.9 nM. Still for that read-out and setting: to `CN(C)CCCC1OC(=O)c2ccccc21` (stereo unspecified) belongs 114 nM; to `O=C1OC(CCCN2CCN(C(=O)c3ccc(C(F)(F)F)cc3)CC2)c2cc(O)ccc21` (stereo unspecified), 8.22 nM. On the same count and under the same terms, to `COc1ccc(N2CCN(CCCC3OC(=O)c4ccccc43)CC2)cc1` (stereo unspecified) belongs 24.3 nM; to `O=C1OC(CCCN2CCN(c3ccc(C(F)(F)F)cc3)CC2)c2ccccc21` (stereo unspecified), 42.9 nM. Still for that read-out and setting: to `O=C1OC(CCCN2CCN(c3ccc([N+](=O)[O-])cc3)CC2)c2ccccc21` (stereo unspecified) belongs 3.77 nM. With `O=C1OC(CCCN2CCN(c3cccc(Cl)c3)CC2)c2ccccc21` (stereo unspecified), the Ki came out at 20.8 nM. Same read-out and setting: to `O=C1OC(CCCN2CCN(C(=O)c3cc4ccccc4[nH]3)CC2)c2ccccc21` (stereo unspecified) belongs 7.97 nM; to `O=C(O)c1ccccc1C(O)CCCN1CCN(C(=O)C2Cc3cccc(Cl)c3N2)CC1` (stereo unspecified), 1.28 nM; to `O=C1OC(CCCN2CCN(C(=O)c3ccccc3)CC2)c2ccccc21` (stereo unspecified), 32.8 nM.

Regarding `O=C1OC(CCCN2CCN(C(=O)c3ccccn3)CC2)c2ccccc21` (stereo unspecified), the Ki was 45.1 nM. The same measure, in the same setting: the figure for `COc1cccc(N2CCN(CCCC3OC(=O)c4ccccc43)CC2)c1` (stereo unspecified) is 30.9 nM.

`O=C1OC(CCCN2CCN(c3ccccc3F)CC2)c2ccccc21` (stereo unspecified) displayed a Ki of 23.6 nM. The same measure, in the same setting: the figure for `O=C1OC(CCCN2CCN(C(=O)c3nc4ccccc4[nH]3)CC2)c2ccccc21` (stereo unspecified) is 73.4 nM; for `O=C1OC(CCCN2CCN(C(=O)c3ccc(Cl)cc3)CC2)c2ccccc21` (stereo unspecified) it is 12.7 nM; for `Cc1ccc(N2CCN(CCCC3OC(=O)c4cc(NS(C)(=O)=O)ccc43)CC2)cc1` (stereo unspecified) it is 12.4 nM.

Consider `Cc1ccccc1N1CCN(CCCC2OC(=O)c3ccccc32)CC1` (stereo unspecified), for which affinity was put at a Ki of 11.3 nM. Same read-out and setting: to `CS(=O)(=O)Nc1ccc2c(c1)C(=O)OC2CCCN1CCN(c2ccc(O)cc2)CC1` (stereo unspecified) belongs 19.6 nM.

The compound `COc1ccc2cc(C(=O)N3CCN(CCCC4OC(=O)c5ccccc54)CC3)[nH]c2c1` (stereo unspecified) had a Ki of 53.2 nM.

The compound `Cc1cccc(N2CCN(CCCC3OC(=O)c4ccccc43)CC2)c1` (stereo unspecified) showed an inhibition constant (Ki) of 36.8 nM. Still for that read-out and setting: to `O=C1OC(CCCN2CCN(C(=O)c3ccc(C(F)(F)F)cc3)CC2)c2ccc(O)cc21` (stereo unspecified) belongs 32.1 nM. Same read-out and setting: the figure for `Cc1ccc(N2CCN(CCCC3OC(=O)c4ccccc43)CC2)cc1` (stereo unspecified) is 6.12 nM; for `Cc1ccc(N2CCN(CCCC3OC(=O)c4ccc(O)cc43)CC2)cc1` (stereo unspecified) it is 15.1 nM. The same measure, in the same setting: to `Cc1ccc(C(=O)N2CCN(CCCC3OC(=O)c4cc(O)ccc43)CC2)cc1` (stereo unspecified) belongs 36.2 nM; to `Cc1ccc(N2CCN(CCCC3OC(=O)c4ccccc43)CC2)cc1C` (stereo unspecified), 29.2 nM; to `Cc1ccc(C(=O)N2CCN(CCCC3OC(=O)c4ccccc43)CC2)cc1` (stereo unspecified), 1.34 nM. Compound `O=C1OC(CCCN2CCN(C(=O)c3ccc(C(F)(F)F)cc3)CC2)c2ccccc21` (stereo unspecified) had an inhibitory constant (Ki) of 2.6 nM. The same measure, in the same setting: the figure for `O=C1OC(CCCN2CCN(C(=O)c3ccc(F)cc3)CC2)c2ccccc21` (stereo unspecified) is 31.1 nM.

Consider `O=C1OC(CCCN2CCN(C(=O)c3ccncc3)CC2)c2ccccc21` (stereo unspecified), for which the affinity corresponds to a Ki of 12.1 nM. Still for that read-out and setting: to `O=C1OC(CCCN2CCN(C(=O)c3cccnc3)CC2)c2ccccc21` (stereo unspecified) belongs 23.5 nM; to `O=C1OC(CCCN2CCN(C(=O)c3cc[nH]c3)CC2)c2ccccc21` (stereo unspecified), 13 nM.

With `COc1cccc(C(=O)N2CCN(CCCC3OC(=O)c4ccccc43)CC2)c1` (stereo unspecified), the affinity, expressed as Ki, was 34.6 nM. The same measure, in the same setting: to `Cc1ccc(C(=O)N2CCN(CCCC3OC(=O)c4cc(NS(C)(=O)=O)ccc43)CC2)cc1` (stereo unspecified) belongs 13.2 nM.

In the case of `O=C1OC(CCCN2CCN(c3ccc(O)cc3)CC2)c2ccc(O)cc21` (stereo unspecified), the affinity, expressed as Ki, was 6.26 nM. On the same count and under the same terms, to `O=C1OC(CCCN2CCN(c3ccc(Br)cc3)CC2)c2ccccc21` (stereo unspecified) belongs 26.5 nM. Still for that read-out and setting: the figure for `O=C1OC(CCCN2CCN(c3ccc(O)cc3)CC2)c2ccccc21` (stereo unspecified) is 26.8 nM; for `COc1ccc(C(=O)N2CCN(CCCC3OC(=O)c4ccccc43)CC2)cc1` (stereo unspecified) it is 46.7 nM; for `O=C1OC(CCCN2CCN(C(=O)c3cc4ccc(Cl)cc4[nH]3)CC2)c2ccccc21` (stereo unspecified) it is 16.7 nM.

Test system in another data set: not listed separately
As to the kind of experiment: Cytotoxicity against HEK293 cells assessed as reduction in cell viability incubated for 48 hrs by CCK-8 assay. To be noted: human.
With `CN(C)CCCC1OC(=O)c2ccccc21` (stereo unspecified), the 50% inhibitory concentration (IC50) at 48 h is above 300000 nM.

Test system in another data set: not listed separately
Put plainly: Cytotoxicity against mouse primary neuron cells assessed as reduction in cell viability incubated for 48 hrs by CCK-8 assay.
Conditions: not given
`CN(C)CCCC1OC(=O)c2ccccc21` (stereo unspecified): the IC50 at 48 h is above 300000 nM.

Test system in the next data set: not listed separately
Put plainly: Cytotoxicity against African green monkey Vero cells assessed as reduction in cell viability incubated for 48 hrs by CCK-8 assay.
Conditions: not given
For `CN(C)CCCC1OC(=O)c2ccccc21` (stereo unspecified), the IC50 at 48 h was above 300000 nM.

A further data set concerns the target Glutamate NMDA receptor; GRIN1/GRIN2B (Homo sapiens, UniProt Q05586+Q13224).
Assay: not given
Conditions: not given
For the compound `O=C1OC(CCCN2CCN(C(=O)c3cc4cccc(Cl)c4[nH]3)CC2)c2cc(O)ccc21` (stereo unspecified), the IC50 came to 183 nM. Still for that read-out and setting: the figure for `CN(C)CCCC1OC(=O)c2ccccc21` (stereo unspecified) is above 10000 nM.

Test system in another data set: not listed separately
As to the kind of experiment: Neuroprotective activity against NMDA-induced cell injury in rat Hippocampal neuron cells assessed as cell viability at 10 uM preincubated with compound for 6 hrs followed by NMDA-addition and measured after 0.5 hrs by MTT assay relative to control. To be noted: Hippocampal neurone, 6.5 h, read-out: Activity.
As to `CC(C(O)c1ccc(O)cc1)N1CCC(Cc2ccccc2)CC1` (stereo unspecified) [IFENPRODIL], the viability at 10 µM was 84.8%.
